Patent publication US11213590B2, “SSTR-targeted conjugates and particles and formulations thereof” (priority 2016, dated 2022)
Like-named read-outs stand apart in the source and are kept apart here.

Columns and labels:
HCC-33 = test: Inhibition of proliferation, CellTiter-Glo, HCC-33; format: cell-based, human; settings: Homo sapiens, HCC33, 6 h incubation, n = 3, read-out: Proliferation Inhibition IC50 of DM1
Protocol: (§1) The purpose of this study was to determine the receptor-dependent inhibition of proliferation in vitro by the somatostatin targeting conjugate Conjugate 57 and determine the sensitivity to DM1 in the human SSTR2 expressing cancer cell lines: NCI-H69, NCI-H82, NCI-H727 and HCC-33. Cells were incubated with Conjugate 57 for 6 hours, in the presence or absence of an excess of octreotide, a somatostatin analogue. A three-fold serial dilution of Conjugate 57 was used for a total of ten concentration points. After treatment, cells were washed, incubated for an additional period of time, either 72 or 96 hours and proliferation was measured using the CellTiter-Glo® Luminescent Cell Viability Assay. The IC50 of Conjugate 57 was used to determine the inhibiting activity in proliferation assays. To determine DM1 sensitivity a similar method to the Conjugate 57 assay was employed with the additional incubation time points of 30 minutes, 1, 2, and 4 hours and the exclusion of the pre-treatment with octreotide. DM1 effect from the most to least sensitive cell line was determined to be: NCI-H69>HCC-33>NCI-H82>NCI-H727 (Table 5B). […] The addition of excess octreotide (100 μM) competes with Conjugate 57 for binding to the SSTR2 receptor. […] In the NCI-H69 experiments, pre-incubation with an excess of octreotide modestly diminished the activity of Conjugate 57 by 1.6 and 2.4 fold, depending on the assay conditions. In the HCC-33 cell line, activity of Conjugate 57 was 3.2 (±1.4) times higher when dosed alone, compared to when the cells were pre-incubated with octreotide. The small but measureable changes in Conjugate 57 activity in the presence of excess octreotide seen in the NCI-H69 and HCC-33 cell lines supports the receptor dependence of the Conjugate 57 antiproliferative effect seen in vitro. In summary, although all the cell lines tested in these experiments express the SSTR2 protein, they have different levels of sensitivity to the Conjugate 57 conjugate of which the DM1 sensitivity may be a contributing factor.

NCI-H69 = test: cells; format: cell-based, human; settings: Homo sapiens, read-out: Proliferation Inhibition IC50 of DM1
Protocol: as §1

NCI-H82 = test: cells; format: cell-based, human; settings: Homo sapiens, read-out: Proliferation Inhibition IC50 of DM1
Protocol: as §1

NCI-H727 = test: cells; format: cell-based, human; settings: Homo sapiens, read-out: Proliferation Inhibition IC50 of DM1
Protocol: as §1

CYP3A4 = CYP3A4 (Homo sapiens, UniProt P08684); settings: KADCYLA package insert; to a lesser extent by CYP3A5; cited from earlier work
[1] = cited from earlier work
NCI-H69 xenograft = test: NCI-H69 lung xenograft efficacy, formulations and schedules; format: in vivo, mice; settings: cisplatin iv 5.0 mg/kg 1x/week combined with etoposide ip 8.0 mg/kg 3x/week over two weeks (SOC); Day 21
Protocol: A further NCI-H69 study design included Conjugate 57 dosed iv at 1.0 mg/kg formulated in propylene glycol (PG), 1.0 mg/kg formulated in Solutol HS15, 0.5 mg/kg formulated in Solutol HS15 dosed twice per week, and 0.33 mg/kg formulated in Solutol HS15 dosed three times per week. A comparator group was dosed with SOC cisplatin dosed iv at 5.0 mg/kg once per week/etoposide dosed ip at 8.0 mg/kg three times per week over two weeks. A negative control vehicle was dosed with the Solutol HS 15 vehicle. All groups contained 10 animals.

Sequence of CYP3A4 (P08684 whole entry): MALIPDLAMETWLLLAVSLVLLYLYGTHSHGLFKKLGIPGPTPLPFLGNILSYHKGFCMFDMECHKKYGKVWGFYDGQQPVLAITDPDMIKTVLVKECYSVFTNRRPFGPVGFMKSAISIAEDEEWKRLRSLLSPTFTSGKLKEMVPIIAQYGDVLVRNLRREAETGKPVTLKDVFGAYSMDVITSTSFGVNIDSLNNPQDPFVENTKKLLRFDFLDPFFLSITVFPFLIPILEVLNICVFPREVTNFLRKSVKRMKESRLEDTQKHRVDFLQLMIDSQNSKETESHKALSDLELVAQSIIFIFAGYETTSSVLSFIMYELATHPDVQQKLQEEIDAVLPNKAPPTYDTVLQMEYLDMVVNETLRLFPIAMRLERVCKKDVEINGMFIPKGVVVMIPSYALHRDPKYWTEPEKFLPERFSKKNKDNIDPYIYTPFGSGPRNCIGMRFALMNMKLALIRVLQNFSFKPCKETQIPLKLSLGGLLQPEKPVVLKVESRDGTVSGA

In the case of `COc1cc2cc(c1Cl)N(C)C(=O)C[C@H](OC(=O)[C@H](C)N(C)C(=O)CCS)C1(C)O[C@H]1[C@H](C)[C@@H]1C[C@@](O)(NC(=O)O1)[C@H](OC)/C=C/C=C(\C)C2` (stereo partly drawn) [DM1, mertansine (DM1), reference compound], the IC50 (HCC-33) is reported as 34 nM, the IC50 (NCI-H69; 0.5 h, 30 min incubation) is reported as 15 nM and the IC50 (NCI-H69; 1 h incubation) is reported as 8 nM. The IC50 (NCI-H69; 2 h incubation) was 14 nM, the IC50 (NCI-H69; 4 h incubation) was 11 nM and the IC50 (NCI-H69; 6 h incubation) was 6 nM. For the same compound, the IC50 (NCI-H82; 0.5 h, 30 min incubation) was 171 nM, the IC50 (NCI-H82; 1 h incubation) was 232 nM and the IC50 (NCI-H82; 2 h incubation) was 183 nM. It also gave an IC50 (NCI-H82; 4 h incubation) of 188 nM, an IC50 (NCI-H82; 6 h incubation) of 56 nM and an IC50 (NCI-H727; 0.5 h, 30 min incubation) of 1160 nM. For the same compound, the IC50 (NCI-H727; 1 h incubation) was 665 nM, the IC50 (NCI-H727; 2 h incubation) was 474 nM and the IC50 (NCI-H727; 4 h incubation) was 380 nM. For the same compound, the IC50 (NCI-H727; 6 h incubation) was 534 nM and the “metabolizing enzymes in vitro” value (CYP3A4) was “metabolized in vitro mainly by CYP3A4”.

In the case of `C[C@@H](O)[C@@H]1NC(=O)[C@H](CCCCN)NC(=O)[C@@H](Cc2c[nH]c3ccccc23)NC(=O)[C@H](Cc2ccccc2)NC(=O)[C@@H](NC(=O)[C@@H](Cc2ccccc2)NC(=O)CN(CCN(CCN(CC(=O)O)CC(=O)O)CC(=O)O)CC(=O)O)CSSC[C@@H](C(=O)N[C@H](CO)[C@@H](C)O)NC1=O` [^111In pentetreotide, metal not drawn], the “hormonal effect relative to octreotide” value ([1]; according to the manufacturer) is given as 1/10 and the “adverse reactions, frequency” value ([1]; human, in vivo) is given as < 1%.

With `N.N.[Cl][Pt][Cl]` [Cisplatin, reference compound] the “MTV (Mean Tumor Volume)” value (NCI-H69 xenograft) was 229 mm3 and the “TGI (Tumor Growth Inhibition)” value (NCI-H69 xenograft) was 84%.
